Source: ChEMBL document CHEMBL1141710 (Bioorg Med Chem Lett, 2008)

Legend:
Cholinesterase = Cholinesterase (Homo sapiens, UniProt P06276)
Description: Inhibition of human recombinant BChE

Acetylcholinesterase = Acetylcholinesterase (Homo sapiens, UniProt P22303)
Description: Inhibition of human recombinant AChE

[1] = target: Cholinesterases; ACHE & BCHE (Homo sapiens) (UniProt P06276+P22303); experiment: Selectivity ratio of Ki for human recombinant AChE to Ki for human recombinant BChE
Cholinesterases; ACHE & BCHE (Homo sapiens), sequence (P06276 whole entry, looked up): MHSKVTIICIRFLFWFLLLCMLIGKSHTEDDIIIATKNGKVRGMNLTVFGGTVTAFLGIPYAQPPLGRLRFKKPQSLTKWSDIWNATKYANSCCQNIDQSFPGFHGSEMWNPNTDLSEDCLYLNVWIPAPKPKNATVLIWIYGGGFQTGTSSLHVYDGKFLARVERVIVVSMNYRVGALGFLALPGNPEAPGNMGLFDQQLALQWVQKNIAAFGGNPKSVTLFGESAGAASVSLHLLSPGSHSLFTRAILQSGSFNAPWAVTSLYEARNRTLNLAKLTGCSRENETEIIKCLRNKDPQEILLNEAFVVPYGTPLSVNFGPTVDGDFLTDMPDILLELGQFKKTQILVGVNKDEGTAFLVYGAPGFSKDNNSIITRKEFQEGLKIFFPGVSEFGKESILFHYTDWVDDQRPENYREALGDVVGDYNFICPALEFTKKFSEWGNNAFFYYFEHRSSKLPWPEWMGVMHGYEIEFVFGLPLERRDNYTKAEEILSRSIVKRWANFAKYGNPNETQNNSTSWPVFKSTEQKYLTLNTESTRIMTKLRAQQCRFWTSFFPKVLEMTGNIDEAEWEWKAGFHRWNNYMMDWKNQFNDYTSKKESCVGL
Cholinesterases; ACHE & BCHE (Homo sapiens), sequence (P22303 whole entry, looked up): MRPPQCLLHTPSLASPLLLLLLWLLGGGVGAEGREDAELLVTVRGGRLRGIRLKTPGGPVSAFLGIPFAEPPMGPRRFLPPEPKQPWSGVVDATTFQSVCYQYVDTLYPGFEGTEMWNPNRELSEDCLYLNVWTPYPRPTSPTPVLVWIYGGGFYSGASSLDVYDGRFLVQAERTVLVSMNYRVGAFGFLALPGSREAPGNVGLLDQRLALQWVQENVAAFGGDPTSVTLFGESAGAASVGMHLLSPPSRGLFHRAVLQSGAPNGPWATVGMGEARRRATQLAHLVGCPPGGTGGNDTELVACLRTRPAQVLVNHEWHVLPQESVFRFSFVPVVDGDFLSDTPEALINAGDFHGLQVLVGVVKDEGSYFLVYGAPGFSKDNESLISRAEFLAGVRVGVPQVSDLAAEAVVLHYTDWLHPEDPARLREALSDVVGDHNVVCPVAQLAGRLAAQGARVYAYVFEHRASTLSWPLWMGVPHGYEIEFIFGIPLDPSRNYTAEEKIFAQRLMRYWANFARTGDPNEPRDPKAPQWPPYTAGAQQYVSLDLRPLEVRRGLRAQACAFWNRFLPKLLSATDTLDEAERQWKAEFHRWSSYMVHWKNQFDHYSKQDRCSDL

Acetylcholinesterase, sequence (P22303 whole entry): as the sequence (P22303 whole entry, looked up) above
Cholinesterase, sequence (P06276 whole entry): as the sequence (P06276 whole entry, looked up) above

N[C@@H](Cc1c[nH]c2ccccc12)C(=O)NCC(=O)Nc1c2c(nc3ccccc13)CCCC2
Ki (Cholinesterase): 251 nM
Ki (Acetylcholinesterase): 2210 nM

CN[C@@H](Cc1ccccc1)C(=O)NCC(=O)Nc1c2c(nc3ccccc13)CCCC2
Ki (Cholinesterase): 1200 nM
Ki (Acetylcholinesterase): 6320 nM

N[C@@H](Cc1c[nH]c2ccccc12)C(=O)NCCNc1c2c(nc3ccccc13)CCCC2
Ratio Ki [1]: 210
Ki (Cholinesterase): 1.33 nM
Ki (Acetylcholinesterase): 280 nM

O=C(NCCCCCNc1c2c(nc3ccccc13)CCCC2)[C@@H]1CCCN1CCNc1c2c(nc3ccccc13)CCCC2
Ki (Cholinesterase): 1.77 nM
Ki (Acetylcholinesterase): 6.75 nM

N[C@@H](CCC(=O)NCCNc1c2c(nc3ccccc13)CCCC2)C(=O)NCCNc1c2c(nc3ccccc13)CCCC2
Ki (Cholinesterase): 25.1 nM
Ki (Acetylcholinesterase): 6.21 nM

N[C@@H](Cc1ccc2ccccc2c1)C(=O)NCC(=O)Nc1c2c(nc3ccccc13)CCCC2
Ki (Cholinesterase): 252 nM
Ki (Acetylcholinesterase): 11200 nM

CN[C@@H](Cc1c[nH]c2ccccc12)C(=O)NCC(=O)Nc1c2c(nc3ccccc13)CCCC2
Ki (Cholinesterase): 1760 nM
Ki (Acetylcholinesterase): 3330 nM

CC(C)(C)OC(=O)N[C@@H](Cc1c[nH]c2ccccc12)C(=O)NCCNc1c2c(nc3ccccc13)CCCC2
Ki (Cholinesterase): 1.87 nM
Ki (Acetylcholinesterase): 130 nM

N[C@@H](Cc1ccccc1)C(=O)NCC(=O)Nc1c2c(nc3ccccc13)CCCC2
Ki (Cholinesterase): 708 nM
Ki (Acetylcholinesterase): 1910 nM

N[C@@H](Cc1c[nH]c2ccccc12)C(=O)NCCC(=O)Nc1c2c(nc3ccccc13)CCCC2
Ratio Ki [1]: 197
Ki (Cholinesterase): 173 nM
Ki (Acetylcholinesterase): 34000 nM

O=C(CNC(=O)[C@@H]1Cc2ccccc2CN1)Nc1c2c(nc3ccccc13)CCCC2
Ki (Cholinesterase): 580 nM
Ki (Acetylcholinesterase): 4130 nM

CC(C)(C)OC(=O)N[C@@H](CCC(=O)NCCNc1c2c(nc3ccccc13)CCCC2)C(=O)NCCNc1c2c(nc3ccccc13)CCCC2
Ki (Cholinesterase): 12.6 nM
Ki (Acetylcholinesterase): 15.4 nM

CC(C)(C)OC(=O)N[C@@H](Cc1c[nH]c2ccccc12)C(=O)NCCC(=O)Nc1c2c(nc3ccccc13)CCCC2
Ki (Cholinesterase): 443 nM
Ki (Acetylcholinesterase): 7970 nM
